Assay: Test for encapsulating rate of drugs in nanoparticles encapsulating double drugs
Format: physicochemical
Conditions: trend as pH of the aqueous mixture solution increased (pH 7.5 to 11, FIG. 1)
Experimental: The synthesized nanoparticles encapsulating double drugs were placed in a concentrating centrifuge tube, and perform centrifugation at a speed of 4,000 rpm for 30 minutes.
(1). Encapsulating Rate of Cisplatin
The clear solution in the concentrating centrifuge tube was diluted 20 folds and mixed with 0.14% solution of o-phenylenediamine in dimethylformamide at a ratio of 1:1, the mixture was heated at 100° C. for 30 minutes and then was cooled in a refrigerator at −20° C. for 10 minutes, finally, the solution was examined for the peak value at a wavelength of 705 nm with UV-visual spectrum, and content of non-encapsulated Cisplatin was converted from the peak value, thereby giving the encapsulating rate of Cisplatin.
(2). Encapsulating Rate Test of Demethoxycurcumin
The nanoparticles on the filter membrane of the concentrating centrifuge tube were re-dissolved in double-distilled water, the solution was mixed with methanol at a ratio of 1:1, and the mixture was analyzed using HPLC. The determination was performed at a flow rate of 1 mL/min under the detection condition at a wavelength of 425 nm, using C18 as stationary phase and acetonitrile-0.3% FA (50:50, v/v) as mobile phase, and the detection result was converted into the concentration of demethoxycurcumin to obtain the encapsulating rate of the drug.

## N.N.[Cl][Pt][Cl] [Cisplatin]
  encapsulating rate: increased

From patent US20170027877A1, “DRUG COMPOSITION AND METHOD FOR PREPARING THE SAME” (priority 2015, published 2017)
